{"source": "patent US20070048360A1", "about": "“Pharmaceutical compositions with melting point depressant agents and method of making same” (priority 2005, published 2007)", "key": {"[1]": {"experiment": "Aqueous blending of bulk powdered CFI and active drug, visual and microscopic check", "type": "physicochemical"}, "[2]": {"conditions": "cited from earlier work"}, "[3]": {"conditions": "oral; cited from earlier work"}}, "note": "Like-named read-outs stand apart in the source and are kept apart here.", "data": [{"smiles": "CCCN(CCC)CCc1cccc2c1CC(=O)N2", "note": "[ROP, Ropinirole]", "values": [{"measurement": "ethanol content of hydro-alcoholic mixture needed to solubilize the drug", "setting": "drug 1% w/w", "value": "at least 40 % by weight of the total mixture"}, {"measurement": "aspect of composition API:PES 1:1 in ethanol/purified water", "setting": "[1]; 15% ethanol", "value": "stable oil droplets"}]}, {"smiles": "CC(C)Cc1ccc(C(C)C(=O)O)cc1", "note": "(stereo not drawn) [Ibuprofen, ibuprofen]", "values": [{"measurement": "ethanol content of hydro-alcoholic mixture needed to solubilize the drug", "setting": "drug 1% w/w", "value": "at least 50 % by weight of the total mixture"}]}, {"smiles": "CN1C2CCCC1CC(NC(=O)c1nn(C)c3ccccc13)C2", "note": "(stereo not drawn) [GRA, Granisetron]", "values": [{"measurement": "ethanol content of hydro-alcoholic mixture needed to solubilize the drug", "setting": "drug 0.5% w/w", "value": "at least 40 % by weight of the total mixture"}, {"measurement": "aspect of composition API:PES 1:1 in ethanol/purified water", "setting": "[1]; 30% ethanol", "value": "stable oil droplets"}]}, {"smiles": "C[C@]12CC[C@H]3[C@@H](CCC4=CC(=O)CC[C@@]43C)[C@@H]1CC[C@@H]2O", "note": "[TES, Testosterone]", "values": [{"measurement": "aspect of composition API:PES 1:1 in ethanol/purified water", "setting": "[1]", "value": "stable oil droplets"}]}, {"smiles": "CC(C)(C)C1CCCCC1O", "note": "(stereo not drawn) [Ortho tertiary butyl cyclohexanol]", "values": [{"measurement": "Log P", "setting": "[2]", "value": "Log P: 3.3-3.4"}]}, {"smiles": "CC(=O)CCc1ccc2c(c1)OCO2", "note": "[4-(1,3-benzodioxol-5-yl)butan-2-one]", "values": [{"measurement": "Log P", "setting": "[2]", "value": "Log P: 1.15"}]}, {"smiles": "Clc1cccc(Cl)c1N=C1NCCN1", "note": "[CLO, clonidine]", "values": [{"measurement": "ethanol content of hydro-alcoholic mixture needed to solubilize the drug", "setting": "drug 0.5% w/w", "value": "at least 50 % by weight of the total mixture"}, {"measurement": "aspect of composition API:PES 1:1 in ethanol/purified water", "setting": "[1]; 5% ethanol", "value": "stable oil droplets"}, {"measurement": "aspect of composition API:PES 1:1 in ethanol/purified water", "setting": "[1]; 10% ethanol", "value": "stable oil droplets"}]}, {"smiles": "NCCCC(O)(P(=O)(O)O)P(=O)(O)O", "note": "[sodium alendronate]", "values": [{"measurement": "fraction of the drug absorbed when administered orally", "setting": "[3]", "value": "about 0.6%"}]}, {"smiles": "CCN(CC)CC#CCOC(=O)C(O)(c1ccccc1)C1CCCCC1", "note": "(stereo not drawn) [OXY, oxybutynin]", "values": [{"measurement": "aspect of composition API:PES 1:1 in ethanol/purified water", "setting": "[1]; 30% ethanol", "value": "small transparent droplets easily re-suspended"}]}, {"smiles": "CCN(CC)CC(=O)Nc1c(C)cccc1C", "note": "[Lidocaine, lidocaine]", "values": [{"measurement": "storage period over which aspect (transparent droplets, no crystallization) was maintained", "setting": "[1]; lidocaine 2.50% w/w and PES 2.50% w/w in water, ambient temperature in the dark", "value": "> 13", "unit": "month"}]}, {"smiles": "c1ccc2c(c1)CC1COCOC21", "note": "(stereo not drawn) [Indeno-m-dioxin tetrahydro]", "values": [{"measurement": "Log P", "setting": "[2]", "value": "Log P: 1.33"}]}, {"smiles": "COc1ccccc1OCCNCC(O)COc1cccc2[nH]c3ccccc3c12", "note": "(stereo not drawn) [CAR, Carvedilol]", "values": [{"measurement": "ethanol content of hydro-alcoholic mixture needed to solubilize the drug", "setting": "drug 1% w/w", "value": "at least 80 % by weight of the total mixture"}, {"measurement": "aspect of composition API:PES 1:1 in ethanol/purified water", "setting": "[1]; 30% ethanol", "value": "stable oil droplets"}]}, {"smiles": "O=C(OCCc1ccccc1)c1ccccc1O", "note": "[Phenyl ethyl salicylate]", "values": [{"measurement": "Log P", "setting": "[2]", "value": "Log P: 4.31"}]}]}
